# Patent US12290565B2, “Methods of using anti-PSGL-1 antibodies in combination with JAK inhibitors to treat T-cell mediated inflammatory diseases or cancers” (AltruBio Inc., priority 2021, dated 2025)
# Like-named read-outs stand apart in the source and are kept apart here.
# How the values were obtained:
# activated T cells [1] = assay: Fixed-ratio combination cytotoxicity assay, ruxolitinib + 15A7H (Chou-Talalay, Calcusyn); type: cell-based, human; settings: for EC50: Homo sapiens, T-cell; for DRIRUXO (Dose-Reduction Index): EC50 level
# Protocol: T cell stimulation was achieved through Phytohemagglutinin-L (PHA) treatment prior to the apoptosis assays described below. In brief, human blood samples used in the study were obtained from heathy human donors. […] The buffy coat layer containing mononuclear cells was collected and washed 3 times with phosphate-buffered saline (PBS) to minimize platelet contamination.
# Activated T cells were seeded in 96-well plates at 1-1.5×10^5 cells/mL and were treated with ruxolitinib and antibody 15A7H alone, or in combination at fixed concentration ratios. For the combination of ruxolitinib and antibody 15A7H, fixed ratios at 3.3:1 and 1.1:1 were tested on T cells from four donors. In addition, a fixed ratio of ruxolitinib and antibody 15A7H of 0.37:1 was tested on T cells from two donors.
# Cell apoptosis was measured using an Annexin-V FITC Apoptosis Detection Kit (Strong Biotech, AVK250), according to the manufacturer's instructions.
# Results were expressed as apoptosis fractions (fraction affected), based on the measured fluorescence counts of treated samples, compared with that of untreated controls. Seven diagonals representing various dose-effect curves with fixed drug ratios were used to measure the combination indexes (CI) for each of the combinations with Calcusyn software (Biosoft). The combinatorial effect was defined as “synergistic”, “additive” or “antagonistic” when CI was <1, 1 and >1, respectively.
# [2] = system: xenogeneic GvHD in ASID mice engrafted with human PBMCs; assay: Xenogeneic graft-versus-host disease (GvHD) mouse model, survival; type: in vivo; settings: ruxolitinib 45 mg/kg oral twice daily 15 days and/or 15A7H 10 mg/kg i.v. every 3 to 4 days, 5 doses
# Protocol: 8-9 weeks old female Advanced Severe Immuno-Deficiency (ASID) mice (NOD.Cg-Prkdc^scidIl2rg^tm1Wjl/YckNarl; NLAC NARLabs Taiwan) received a total body irradiation dose of 2.0 Gy and were engrafted with 3×10^6 human PBMCs by tail vein injection at 24 hours post irradiation. The mice were kept under pathogen-free conditions and reared under standardized methods as temperature set at 22±1° C. with a 12-hour daylight/dark cycle and full access to food and water. Experimental animals were randomly divided into treatment groups after receiving a minimum of 3 days of acclimatization to the environment.
# Xenogeneic GvHD (xGvHD) was induced in ASID mice receiving 3×10^6 human PBMCs (n=5-7 per group). Post 72 hours of human PBMC engraftment, ruxolitinib at 45 mg/kg or vehicle was orally administered twice daily for 15 days, as well as anti-PSGL-1 15A7H antibody at 10 mg/kg or vehicle was intravenously administered every 3 to 4 days for total 5 doses. Mice were assessed for survival daily. The time of the treatment initiated was designated as Day 1.
# activated T cells [3] = assay: T cell apoptosis assay (Annexin V/PI FACS), 15A7H and/or ruxolitinib; type: cell-based, human; settings: ruxolitinib alone, 0.122-10 μM, 48 hours
# Protocol: T cell stimulation was achieved through Phytohemagglutinin-L (PHA) treatment prior to the apoptosis assays described below. In brief, human blood samples used in the study were obtained from heathy human donors. Peripheral blood mononuclear cells (PBMCs) were freshly isolated from whole blood by Ficoll-Hypaque gradient centrifugation (Ficoll-Paque PLUS, GE Healthcare, Cat #17-1440-03) at 2400 revolutions per minute (rpm) for 15 minutes at room temperature. The buffy coat layer containing mononuclear cells was collected and washed 3 times with phosphate-buffered saline (PBS) to minimize platelet contamination. […]
# Fluorescence-activated cell sorting (FACS) analysis using the Annexin V/propidium iodide (PI) staining method was used to determine the apoptotic rate in drug- and control-treated cells. […]
# Samples were run on a flow cytometer (BD LSR scanner; BD Biosciences, San Diego), and cell viability and apoptosis were calculated using a quadrant on the Annexin-V-FITC/PI histogram. Living cells were identified as those negatively stained for both fluorescence dyes, early apoptotic cells were identified as those only Annexin-V-FITC-positive, necrotic cells were identified as those only PI-positive, and late apoptotic cells were identified as those positively stained for both fluorescence dyes. […]
smiles,measurement,setting,value
"N#CC[C@H](C1CCCC1)n1cc(-c2ncnc3[nH]ccc23)cn1 [RUXO, (R)-3-(4-(7H-pyrrolo[2,3-d]pyrimidin-4-yl)-1 H-pyrazol-1-yl)-3-cyclopentylpropanenitrile]",EC50,"activated T cells [1]; donor N084, RUXO + 15A7H, ratio 1.1:1, read-out: EC50RUXO Combination Treatment",201 nM
same,EC50,"activated T cells [1]; donor N084, RUXO + 15A7H, ratio 3.3:1, read-out: EC50RUXO Combination Treatment",373 nM
same,EC50,"activated T cells [1]; donor N084, RUXO alone, section ratio 1.1:1, read-out: EC50RUXO Single Treatment",4220 nM
same,EC50,"activated T cells [1]; donor N084, RUXO alone, section ratio 3.3:1, read-out: EC50RUXO Single Treatment",4220 nM
same,EC50,"activated T cells [1]; donor N089, RUXO + 15A7H, ratio 1.1:1, read-out: EC50RUXO Combination Treatment",394 nM
same,EC50,"activated T cells [1]; donor N089, RUXO + 15A7H, ratio 3.3:1, read-out: EC50RUXO Combination Treatment",479 nM
same,EC50,"activated T cells [1]; donor N089, RUXO alone, section ratio 1.1:1, read-out: EC50RUXO Single Treatment",2360 nM
same,EC50,"activated T cells [1]; donor N089, RUXO alone, section ratio 3.3:1, read-out: EC50RUXO Single Treatment",2000 nM
same,EC50,"activated T cells [1]; donor N102, RUXO + 15A7H, ratio 0.37:1, read-out: EC50RUXO Combination Treatment",165 nM
same,EC50,"activated T cells [1]; donor N102, RUXO + 15A7H, ratio 1.1:1, read-out: EC50RUXO Combination Treatment",499 nM
same,EC50,"activated T cells [1]; donor N102, RUXO + 15A7H, ratio 3.3:1, read-out: EC50RUXO Combination Treatment",1150 nM
same,EC50,"activated T cells [1]; donor N102, RUXO alone, section ratio 0.37:1, read-out: EC50RUXO Single Treatment",10100 nM
same,EC50,"activated T cells [1]; donor N102, RUXO alone, section ratio 1.1:1, read-out: EC50RUXO Single Treatment",10100 nM
same,EC50,"activated T cells [1]; donor N102, RUXO alone, section ratio 3.3:1, read-out: EC50RUXO Single Treatment",10100 nM
same,EC50,"activated T cells [1]; donor N103, RUXO + 15A7H, ratio 0.37:1, read-out: EC50RUXO Combination Treatment",266 nM
same,EC50,"activated T cells [1]; donor N103, RUXO + 15A7H, ratio 1.1:1, read-out: EC50RUXO Combination Treatment",554 nM
same,EC50,"activated T cells [1]; donor N103, RUXO + 15A7H, ratio 3.3:1, read-out: EC50RUXO Combination Treatment",1010 nM
same,EC50,"activated T cells [1]; donor N103, RUXO alone, section ratio 0.37:1, read-out: EC50RUXO Single Treatment",9170 nM
same,EC50,"activated T cells [1]; donor N103, RUXO alone, section ratio 1.1:1, read-out: EC50RUXO Single Treatment",9170 nM
same,EC50,"activated T cells [1]; donor N103, RUXO alone, section ratio 3.3:1, read-out: EC50RUXO Single Treatment",9170 nM
same,DRIRUXO (Dose-Reduction Index),"activated T cells [1]; donor N084, RUXO + 15A7H, ratio 1.1:1",20.9884
same,DRIRUXO (Dose-Reduction Index),"activated T cells [1]; donor N084, RUXO + 15A7H, ratio 3.3:1",11.3242
same,DRIRUXO (Dose-Reduction Index),"activated T cells [1]; donor N089, RUXO + 15A7H, ratio 1.1:1",6.0012
same,DRIRUXO (Dose-Reduction Index),"activated T cells [1]; donor N089, RUXO + 15A7H, ratio 3.3:1",4.1685
same,DRIRUXO (Dose-Reduction Index),"activated T cells [1]; donor N102, RUXO + 15A7H, ratio 0.37:1",61.2797
same,DRIRUXO (Dose-Reduction Index),"activated T cells [1]; donor N102, RUXO + 15A7H, ratio 1.1:1",20.2269
same,DRIRUXO (Dose-Reduction Index),"activated T cells [1]; donor N102, RUXO + 15A7H, ratio 3.3:1",8.7676
same,DRIRUXO (Dose-Reduction Index),"activated T cells [1]; donor N103, RUXO + 15A7H, ratio 0.37:1",34.4195
same,DRIRUXO (Dose-Reduction Index),"activated T cells [1]; donor N103, RUXO + 15A7H, ratio 1.1:1",16.5574
same,DRIRUXO (Dose-Reduction Index),"activated T cells [1]; donor N103, RUXO + 15A7H, ratio 3.3:1",9.0902
same,effect on xenogeneic GVHD induced by human lymphocytes,[2],ameliorated xenogeneic GVHD
same,increase in apoptosis over background levels,activated T cells [3],minimal or no increases in apoptosis over background levels
